We go through nine compounds from PMC9721440, “Investigation of the enantioselectivity of acetylcholinesterase and butyrylcholinesterase upon inhibition by tacrine-iminosugar heterodimers” (Journal of Enzyme Inhibition and Medicinal Chemistry, 2022).

“Also recorded” adds a separate entry of the source.

One assay deals with AChE. The settings on record: cited from earlier work; for inhibition of AChE: 20 μM inhibitor concentration.
Assay [1] concerns A549, HBL-100, HeLa, SW1573, T-47D and WiDr cells. Put plainly: Antiproliferative SRB assay, panel of six cancer cell lines. It is filed as cell-based. As to conditions: Homo sapiens, 48 h exposure, whole panel, read-out: GI50 against panel of six human cancer cell lines. An excerpt:
(§1) For the antiproliferative tests, we applied our implementation of the National Cancer Institute (NCI) screening protocol. As a model of human solid tumour cells, we selected the cell lines A549 (non-small cell lung), HBL-100 (breast), HeLa (cervix), SW1573 (non-small cell lung), T-47D (breast), and WiDr (colon). Cell seeding densities, based on the cell line doubling time, were 2500 (A549, HBL-100, HeLa and SW1573) or 5000 (T-47D and WiDr) cells/well. Compounds were initially dissolved in DMSO at 400 times the desired final maximum test concentration. […] Each compound was tested in triplicate at different dilutions ranging from 1 to 100 μM. Drug treatment began on day 1 after sowing. The drug incubation times were 48 h, after which the cells were precipitated with ice-cold TCA (50% w/v) and fixed for 60 min at 4 °C. Then the SRB test was performed. The optical density (OD) of each well was measured at 530 nm using a microplate absorbance reader (PowerWave XS, BioTek Instruments Inc.). Values were corrected for background OD of wells containing medium only[39].
(§2) Antiproliferative activity of our heterodimers was investigated for six cancer cell lines including A549, HBL-100, HeLa, SW1573, T-47D and WiDr.
(In SRB staining, fixed cells bind dye roughly in proportion to their protein.)

Assay [2] addresses T1, BuChE from equine serum (eqBuChE) (Equus caballus, UniProt P81908).
T1 construct: BuChE from equine serum; from tissue; host or cells: equine serum
Put plainly: biochemical. It is filed as biochemical. The settings on record: for IC50: [S] = 112 µM, mean ± SD; for Enantioselectivity (eqBuChE): IC50(Xa:BuChE)/IC50(Xb,BuChE). An excerpt:
(§3) A Thermo Scintific^TM Varioskan^TM LUX microplate reader and Greiner F-bottom 96-well plates were used. Cornish-Bowden plots (1/V vs. [I] and [S]/V vs. [I]) were used for the visualisation of the mode of inhibition.
(§4) A minor modification of the Ellman assay was used in order to measure the IC50 values.

Assay [3] addresses AChE from Electrophorus electricus (eeAChE) (Electrophorus electricus, UniProt O42275). Put plainly: biochemical. The assay is classed as biochemical. The settings on record: for IC50: [S] = 121 µM, mean ± SD; for Enantioselectivity (eeAChE): IC50(Xa:AChE)/IC50(Xb:AChE); for fold more potent eeAChE inhibitor than 10a: IC50 ratio vs 10a.
Text: as §3, §4

For assay [4], the system named is A549 (non-small cell lung) cells. Put plainly: Antiproliferative SRB assay, A549. The assay is classed as cell-based, human. The settings on record: 48 h exposure.
Text: as §1, §2

The next assay relates to HBL-100 (breast) cells. Put plainly: Antiproliferative SRB assay, HBL-100. It is filed as cell-based. The settings on record: Homo sapiens, 48 h exposure.
Text: as §1, §2

A further assay deals with WiDr (colon) cells. Put plainly: Antiproliferative SRB assay, WiDr. The assay is classed as cell-based. As to conditions: Homo sapiens, 48 h exposure.
Text: as §1, §2

Assay [5] concerns SW1573 (non-small cell lung) cells. Put plainly: Antiproliferative SRB assay, SW1573. The assay is classed as cell-based. As to conditions: Homo sapiens, 48 h exposure.
Text: as §1, §2

The next assay has as its system T-47D (breast) cells. Put plainly: Antiproliferative SRB assay, T-47D. The settings on record: Homo sapiens, T47D, 48 h exposure. It is filed as cell-based.
Text: as §1, §2

The subject of a further assay is HeLa (cervix) cells. Put plainly: Antiproliferative SRB assay, HeLa. It is filed as cell-based. The settings on record: Homo sapiens, 48 h exposure.
Text: as §1, §2

T1 sequence (P81908 whole entry): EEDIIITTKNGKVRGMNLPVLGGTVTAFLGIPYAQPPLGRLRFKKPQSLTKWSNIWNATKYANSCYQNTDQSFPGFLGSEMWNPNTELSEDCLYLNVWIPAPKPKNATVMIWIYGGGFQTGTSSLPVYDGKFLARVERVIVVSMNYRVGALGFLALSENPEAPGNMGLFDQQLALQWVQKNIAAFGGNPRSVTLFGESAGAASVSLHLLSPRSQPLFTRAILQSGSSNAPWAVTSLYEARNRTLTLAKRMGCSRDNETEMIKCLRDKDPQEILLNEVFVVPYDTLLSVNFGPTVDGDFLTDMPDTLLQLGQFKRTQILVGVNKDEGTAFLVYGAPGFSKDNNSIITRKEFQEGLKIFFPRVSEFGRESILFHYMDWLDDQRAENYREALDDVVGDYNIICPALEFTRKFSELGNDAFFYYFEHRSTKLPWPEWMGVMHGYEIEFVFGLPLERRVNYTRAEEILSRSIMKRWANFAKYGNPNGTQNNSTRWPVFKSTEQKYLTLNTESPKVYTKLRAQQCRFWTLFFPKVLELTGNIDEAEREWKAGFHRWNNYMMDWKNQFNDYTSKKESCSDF
Sequence of AChE from Electrophorus electricus (eeAChE) (O42275 24-633): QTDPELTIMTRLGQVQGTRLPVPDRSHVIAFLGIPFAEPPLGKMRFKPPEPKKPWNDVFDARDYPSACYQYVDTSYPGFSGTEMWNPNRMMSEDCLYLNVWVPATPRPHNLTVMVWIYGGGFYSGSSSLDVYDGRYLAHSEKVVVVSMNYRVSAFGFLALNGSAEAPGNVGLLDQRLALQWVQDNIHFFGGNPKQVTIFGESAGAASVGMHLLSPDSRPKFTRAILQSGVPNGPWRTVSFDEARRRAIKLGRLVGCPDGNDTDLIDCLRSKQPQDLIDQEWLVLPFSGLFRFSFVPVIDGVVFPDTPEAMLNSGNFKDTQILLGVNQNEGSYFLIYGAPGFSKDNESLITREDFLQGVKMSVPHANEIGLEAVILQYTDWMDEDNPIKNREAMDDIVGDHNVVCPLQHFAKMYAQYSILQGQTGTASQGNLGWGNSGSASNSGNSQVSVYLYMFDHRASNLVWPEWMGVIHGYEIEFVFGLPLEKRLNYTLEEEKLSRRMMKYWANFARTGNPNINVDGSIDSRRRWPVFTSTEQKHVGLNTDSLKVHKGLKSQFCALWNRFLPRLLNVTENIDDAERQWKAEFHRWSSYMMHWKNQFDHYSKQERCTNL

Take `COc1ccc2c3c1O[C@H]1C[C@@H](O)C=C[C@@]31CCN(C)C2` [(-)-Galantamine (2a), (-)-Galantamine]: the “inhibition of AChE” value in the assay on AChE is reported as “ca. 94%”.

In the case of `CNC(=O)Oc1ccc2c(c1)[C@]1(C)CCN(C)[C@@H]1N2C` [(-)-physostigmine (3a), (-)-physostigmine], in the assay with AChE (depending on the enzyme source), the “fold stronger AChE inhibitor than (+)-physostigmine (3b)” value is 25- to 1000 fold.

In the case of `COc1ccc2c3c1O[C@@H]1C[C@H](O)C=C[C@]31CCN(C)C2` [Compound 2b], in the assay on AChE, the “inhibition of AChE” value is recorded as “ca. 4%”.

Consider `OC[C@@H]1[C@@H](O)[C@H](O)CN1Cc1cn(CCNc2c3c(nc4ccccc24)CCCC3)nn1` [Compound 9a], for which the 50% growth inhibitory concentration (GI50) (usually the concentration giving 50% growth inhibition) in assay [1] was over 100 µM. Also, the IC50 – broadly, the point on the concentration scale where inhibition reaches its midpoint – is 0.096 ± 0.005 µM in assay [2] and 0.42 ± 0.01 µM in [3].

On to `OC[C@H]1[C@H](O)[C@@H](O)CN1Cc1cn(CCNc2c3c(nc4ccccc24)CCCC3)nn1` [Compound 9b], for which the GI50 in assay [1] is over 100 µM. Moreover, in assay [2], the “Enantioselectivity (eqBuChE)” value stood at 0.54 and the 50% inhibitory concentration (IC50) is 0.179 ± 0.025 µM. Further, in [3], the “Enantioselectivity (eeAChE)” value turned out to be 0.28 and it took 1.48 ± 0.24 µM to reach half-maximal inhibition (IC50).

`OC[C@@H]1[C@@H](O)[C@H](O)CN1Cc1cn(CCCNc2c3c(nc4ccccc24)CCCC3)nn1` [Compound 10a]: the GI50 in assay [1] is over 100 µM. Further, the IC50 worked out at 0.184 ± 0.016 µM in [2] and 0.53 ± 0.03 µM in assay [3]. Further, in assay [3] (IC50 ratio vs 10b, less potent), the “fold less potent eeAChE inhibitor than 10b” value is given as “ca. 3.5 fold”.

As to `OC[C@H]1[C@H](O)[C@@H](O)CN1Cc1cn(CCCNc2c3c(nc4ccccc24)CCCC3)nn1` [Compound 10b], in assay [1], the GI50 was over 100 µM. For the same compound, in [2], the “Enantioselectivity (eqBuChE)” value amounted to 0.79 and the midpoint of inhibition, the IC50, lay at 0.232 ± 0.028 µM. For the same compound, in [3], the “Enantioselectivity (eeAChE)” value worked out at 3.5, the “fold more potent eeAChE inhibitor than 10a” value was “ca. 4 fold” and the IC50 came to 0.15 ± 0.038 µM.

In the case of `OCC1C(O)C(O)CN1Cc1cn(CCCCCCNc2c3c(nc4ccccc24)CCCC3)nn1` (centres unmarked) [Compound 11a], the GI50 is 94 ± 9.6 µM in assay [4]; under 100 µM in assay [4] (Homo sapiens, A549, 48 h); over 100 µM in the assay with HBL-100 (breast) cells; over 100 µM in the assay on WiDr (colon) cells; over 100 µM in assay [5]; over 100 µM in the assay on T-47D (breast) cells. Moreover, in the assay with HeLa (cervix) cells, the GI50 turned out to be 93 ± 12 µM. Further, in assay [2] (IC50 ratio vs 9a), the “fold stronger eqBuChE inhibitor than 9a” value was “roughly 11 fold”. Moreover, the “fold stronger eqBuChE inhibitor than 10a” value in assay [2] (IC50 ratio vs 10a) is 20 fold. Besides, the IC50 was 0.0091 ± 0.0003 µM in [2] and 0.0097 ± 0.001 µM in assay [3]. The “fold more potent eeAChE inhibitor than 9a” value in assay [3] (IC50 ratio vs 9a) is reported as “ca. 43 fold”. The “fold more potent eeAChE inhibitor than 10a” value in assay [3] was determined as 55 fold.

Regarding `OC[C@H]1[C@H](O)[C@@H](O)CN1Cc1cn(CCCCCCNc2c3c(nc4ccccc24)CCCC3)nn1` [Compound 11b], the GI50 in assay [4] was 84 ± 28 µM; in assay [4] (Homo sapiens, A549, 48 h), under 100 µM; in the assay with HBL-100 (breast) cells, over 100 µM; with WiDr (colon) cells, over 100 µM; in assay [5], 97 ± 5.4 µM; with T-47D (breast) cells, over 100 µM. The compound also came in with a GI50 in the assay with HeLa (cervix) cells of over 100 µM. For the same compound, the “Mode of inhibition eqBuChE” value in [2] (Cornish-Bowden plots) was “mixed; also recorded: (mixed)”. Moreover, in assay [2], the “Enantioselectivity (eqBuChE)” value worked out at 1.1. In addition, in [2] (IC50 ratio vs 9b), the “fold stronger eqBuChE inhibitor than 9b” value worked out at 22 fold. In assay [2] (IC50 ratio vs 10b), the “fold stronger eqBuChE inhibitor than 10b” value is listed as 29 fold. The IC50 in [2] is 0.0081 ± 0.0001 µM; in [3], 0.0107 ± 0.0003 µM. Further, the Ki (as a rule, a dissociation constant, usually derived from enzyme kinetics or from competition with a known ligand) in assay [2] (mixed inhibition, Cornish-Bowden, read-out: Ki (competitive inhibition constant) eqBuChE) was 0.01 µM; in [3] (mixed inhibition, Cornish-Bowden, read-out: Ki (competitive inhibition constant) eeAChE) it was 0.019 µM. In addition, in [3] (Cornish-Bowden plots), the “Mode of inhibition eeAChE” value was “mixed; also recorded: (mixed)”. Also, in assay [3], the “Enantioselectivity (eeAChE)” value is recorded as 0.91. Also, the “fold more potent eeAChE inhibitor than 9b” value in assay [3] (IC50 ratio vs 9b) is “ca. 138 fold”. Moreover, in assay [3] (IC50 ratio vs 10b), the “fold more potent eeAChE inhibitor than 10b” value was about 14 fold.
